Patent publication US11084830B2, “Five-membered non aromatic ring-pyrimidine HIV-1 reverse transcriptase inhibitor, preparation method therefor, and uses thereof” (priority 2018, dated 2021)

Columns and labels:
WT HIV-1 strain (IIIB) = test: Anti-HIV-1 activity in MT-4 cells, MTT method, wild-type strain IIIB; type: cell-based; details: for SI IIIB: selectivity index, ratio of CC50/EC50, strain IIIB
Description: (§1) Antiviral potency was evaluated in MT-4 cell cultures infected with WT HIV-1 strain (IllB) as well as cells infected with a panel of NNRTI-resistant double-mutant strain K103N+Y181C (RES056).
(§2) Selected compounds were screened for inhibitory activity against HIV-1 using MTT method as describe previously by Christophe. Pannecouque et al. Nat. Protoc. […] And in vitro anti-HIV activity of compounds were supported by Rega Institute for Medical Research. The MTT assay is based on the reduction of the yellow colored 3-(4,5-dimethylthiazol-2-yl)-2,5-diphenyltetrazolium bromide (MTT) by mitochondrial dehydrogenases of metabolically active cells to a blue formazan which can be measured spectrophotometrically. Tested optical density served as an indicator for live cells, and survival rate can be concluded by testing the optical density of 540 nm and 690 nm. MT-4 cells infected with HIV-1 can only survive for 5 to 7 days without any treatment, but when HIV-1 inhibitors were added, they can protect MT-4 cell from cytopathic. Serial solution of compounds was added to MT-4 cells after infected with HIV-1, MTT method was used to detect the survival rate after culture for 5 to 7 days.
(§3) (1) MT-4 cells infected with HIV-1 viral strains (IIIB, Y181C/K103N) were provided by Rega Institute for Medical Research, Katholieke Universiteit Leuven, Belgium.
(§4) (3) Preparation of compounds: Stock solutions (10×final concentration) of test compounds is diluted with double distilled H2O for 5 folds and 5 concentrations of one compound are prepared.
(§5) (5) Test method (MTT method): Serial five-fold dilutions of test compounds were added to cultured MT-4 cells infected with HIV-1, after 5 to 7 days, MTT was added and cultured for a few hours.
(§6) The MTT method was described briefly as follows: stock solutions (10×final concentration) of test compounds were added in 25 μL volumes to two series of triplicate wells in order to allow simultaneous evaluation of the effects on mock- and HIV-infected cells. Using a Biomek 3000 robot (Beckman Instruments, Fullerton, Calif.), serial five-fold dilutions of the test compounds (final 200 μL volume per well) were made directly in flat-bottomed 96-well microtiter trays, including untreated control HIV-1 and mock-infected cell samples for each sample. […] Mock-infected cells were used to evaluate the effect of test compounds on uninfected cells to assess cytotoxicity. Exponentially growing MT-4 cells were centrifuged for 5 min at 1000 rpm and the supernatant was discarded. […] At five days after infection, the viability of mock- and HIV-infected cells was determined spectrophotometrically by means of MTT assay.
(§7) The MTT assay is based on the reduction of yellow-colored MTT (Acros Organics, Geel, Belgium) by mitochondrial dehydrogenase of metabolically active cells to form a blue-purple formazan that can be measured spectrophotometrically. The absorbances were read in an eight-channel computer-controlled photometer, at the wavelengths of 540 and 690 nm. All data were calculated using the median optical density (OD) value of three wells.

[1] = tested on: NNRTI-resistant double-mutant strain K103N+Y181C (RES056); test: microbe, parasite or virus in culture; type: cell-based, HIV-1; details: for EC50: Human immunodeficiency virus 1, MT4, read-out: EC50 RES056; for SI RES056: selectivity index, ratio of CC50/EC50, strain RES056
Description: as §1, §2, §3, §4, §5, §6, §7

mock-infected MT-4 cells = test: Cytotoxicity in mock-infected MT-4 cells, MTT method; type: cell-based; details: human, 5 days
Description: (§8) The MTT method was described briefly as follows: stock solutions (10×final concentration) of test compounds were added in 25 μL volumes to two series of triplicate wells in order to allow simultaneous evaluation of the effects on mock- and HIV-infected cells. Using a Biomek 3000 robot (Beckman Instruments, Fullerton, Calif.), serial five-fold dilutions of the test compounds (final 200 μL volume per well) were made directly in flat-bottomed 96-well microtiter trays, including untreated control HIV-1 and mock-infected cell samples for each sample. HIV-1 (IIIB) and mutant HIV-1 strains stock (50 μL at 100-300 CCID50) or culture medium was added to either the infected or mock-infected wells of the microtiter tray. Mock-infected cells were used to evaluate the effect of test compounds on uninfected cells to assess cytotoxicity. Exponentially growing MT-4 cells were centrifuged for 5 min at 1000 rpm and the supernatant was discarded. The MT-4 cells were resuspended at 6×10^5 cells/mL, and 50 μL aliquots were transferred to the microtiter tray wells. At five days after infection, the viability of mock- and HIV-infected cells was determined spectrophotometrically by means of MTT assay.
as §7

[2] = as above; type: cell-based; details: human, CC50
Description: as §8, §7

Row | SMILES | SI IIIB (WT HIV-1 strain (IIIB)) | EC50 [1] [nM] | SI RES056 [1] | CC50 (mock-infected MT-4 cells) [nM] | EC50 (WT HIV-1 strain (IIIB); Human immunodeficiency virus 1, IIIB, MT4, read-out: EC50 IIIB) [nM] | CC50 at 5 days [2] [nM] | fold more potent than ETR (WT HIV-1 strain (IIIB); EC50 against HIV-1 IIIB compared with ETR)
1 | Cc1cc(C#N)cc(C)c1Oc1nc(NC2CCN(Cc3ccc(S(N)(=O)=O)cc3)CC2)nc2c1CSC2 [Compound D1, 4-((4-((4-(4-cyano-2,6-dimethylphenoxy)-5,7-dihydrothieno[3,4-d]pyrimidin-2-yl)amino)piperidin-1-yl)methyl)benzenesulfonamide] | 715 | 734 ± 337 | 36 | 26600 ± 1960 | – | – | –
2 | Cc1cc(C#N)cc(C)c1Oc1nc(NC2CCN(Cc3ccc(C(N)=O)cc3)CC2)nc2c1COC2 [Compound B2, 4-((4-((4-(4-cyano-2,6-dimethylphenoxy)-5,7-dihydrofuro[3,4-d]pyrimidin-2-yl)amino)piperidin-1-yl)methyl)benzamide] | – | 41.5 ± 9.9 | >6039 | > 250000 | 2 | > 200000 | –
3 | Cc1cc(C#N)cc(C)c1Oc1nc(NC2CCN(Cc3ccc(S(N)(=O)=O)cc3)CC2)nc2c1CCC2 [Compound C1, 4-((4-((4-(4-cyano-2,6-dimethylphenoxy)-6,7-dihydro-5H-cyclopenta[d]pyrimidin-2-yl)amino)piperidin-1-yl)methyl)benzenesulfonamide] | – | 25.8 | >9091 | > 234000 | – | > 200000 | about 4.6 fold
4 | Cc1cc(C#N)cc(C)c1Oc1nc(NC2CCN(Cc3ccc([N+](=O)[O-])cc3)CC2)nc2c1SCC2 [Compound A5, 3,5-dimethyl-4-((2-((1-(4-nitrobenzyl)piperidin-4-yl)amino)-6,7-dihydrothieno[3,2-d]pyrimidin-4-yl)oxy)benzonitrile] | 770 | 495 ± 1.3 | 12 | 6180 ± 1740 | – | – | –
